The source of these data is patent US7999108B2, “Benzyl amines, a process for their production and their use as anti-inflammatory agents” (Bayer Schering Pharma AG, priority 2006, dated 2011).

For assay [1], the target named is T1, glucocorticoid receptor (GR) (Homo sapiens, UniProt P04150).
T1 construct: made in house; host or cells: Sf9 insect cells infected with recombinant baculovirus; cytosol preparation
T1 sequence (P04150 1-777): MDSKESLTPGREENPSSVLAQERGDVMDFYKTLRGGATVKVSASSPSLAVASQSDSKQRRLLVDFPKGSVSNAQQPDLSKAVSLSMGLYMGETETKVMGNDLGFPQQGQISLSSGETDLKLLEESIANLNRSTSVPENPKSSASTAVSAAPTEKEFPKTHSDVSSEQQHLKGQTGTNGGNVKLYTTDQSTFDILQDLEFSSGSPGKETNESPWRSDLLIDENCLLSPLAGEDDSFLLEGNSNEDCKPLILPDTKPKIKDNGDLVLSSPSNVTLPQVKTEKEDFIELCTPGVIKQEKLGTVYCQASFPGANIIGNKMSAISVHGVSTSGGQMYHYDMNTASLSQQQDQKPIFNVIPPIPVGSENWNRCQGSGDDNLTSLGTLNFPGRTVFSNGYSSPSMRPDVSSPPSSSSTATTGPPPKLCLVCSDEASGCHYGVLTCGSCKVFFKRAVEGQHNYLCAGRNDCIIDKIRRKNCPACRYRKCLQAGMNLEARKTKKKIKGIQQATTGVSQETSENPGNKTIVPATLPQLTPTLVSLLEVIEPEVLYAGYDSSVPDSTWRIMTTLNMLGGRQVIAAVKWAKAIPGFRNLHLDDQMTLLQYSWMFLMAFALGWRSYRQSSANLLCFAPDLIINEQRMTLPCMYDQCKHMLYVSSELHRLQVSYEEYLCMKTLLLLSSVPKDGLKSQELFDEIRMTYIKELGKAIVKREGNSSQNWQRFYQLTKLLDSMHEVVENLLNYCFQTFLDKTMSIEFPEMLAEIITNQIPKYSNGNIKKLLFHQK
Briefly: Binding to the glucocorticoid receptor (GR), recombinantly produced receptor, Sf9 cytosol preparations. The note with it: recombinant GR, cytosol of baculovirus-infected Sf9 cells, reference [3H]-dexamethasone. An excerpt:
The binding of the substances to the glucocorticoid receptor (GR) and other steroid hormone receptors (mineral corticoid receptor (MR), progesterone receptor (PR) and androgen receptor (AR)) is examined with the aid of recombinantly produced receptors. Cytosol preparations of Sf9 cells, which had been infected with recombinant baculoviruses, which code for the GR, are used for the binding studies. In comparison to reference substance [^3H]-dexamethasone, the substances show a high to very high affinity to GR.

The subject of assay [2] is secretion of cytokine IL-8 in human monocyte cell line THP-1 triggered by lipopolysaccharide (LPS). Briefly: Inhibition of LPS-triggered IL-8 secretion in THP-1 cells (ELISA). The note with it: IL-8 in supernatant by ELISA, read-out: IC50(IL8). Format: cell-based. On the procedure: The concentration of the cytokines was determined in the supernatant by means of commercially available ELISA kits.

Molecules are shown by their SMILES. pIC50: −log10 of the molar value.

Regarding `COc1cccc(C(Nc2cccc3nc(C)ccc23)C(O)(CCl)C(F)(F)F)c1` (centres unmarked) [Example 3], the pIC50 in assay [1] was 7.19; in assay [2] it was 7.60.
